Source: patent US20170143753A1, “SOPHOROLIPID ESTER CHAIN LENGTH DEPENDENCE ON THE INHIBITION OF HUMAN PATHOGENS” (Syntehzyme LLC, priority 2011, published 2017)
Converted amounts (≈) assume the structure as drawn. Read-outs that look alike come from different tables or passages of the source.

Assays:
Listeria innocua = assay: Minimum inhibitory concentration (MIC), broth microdilution; type: cell-based; settings: for MIC: Listeria innocua, read-out: Minimum Inhibitory Concentration (MIC) Listeria Innocua; for activity against Listeria innocua (in words): MIC assay, up to 128 μg/mL
Protocol: (§1) Sophorolipid ester derivatives, as well as the diacetate lactonic sophorolipid have inhibitory activity against a range of human pathogenic bacteria, which was confirmed by experiments and observations. Sophorolipid samples were dissolved in pure DMSO to a final concentration of 2.56 mg/mL that was used as a stock solution. Except the first row, the wells of a 96-well microplate were loaded with 100 μL of sterilized PBS buffer. The stock solution (20 μL) and sterilized PBS buffer pH 7.4 (180 μL) was added into the first row of the 96-well microplate and serially diluted (2-fold dilution) from 256 μg/mL to 2 μg/mL using PBS buffer. After serial dilution, 100 μL of fresh bacteria cells (10^6 cfu/mL) suspended in Soy broth (SB) or Mueller Hinton broth (MHB) culture medium were added to each well and the plates were incubated for 16 or 30 hours. Wells with only cells in 5% DMSO in PBS/medium (no SL) and with only 5% DMSO in PBS/medium (no SL and no cells) were used as positive and negative controls, respectively. […] Lactonic SL as well as all SL esters except SL hexyl ester (no activity against all strains) and SL pentyl ester (no activity against B. Subtilis) were active against all three gram-positive bacterial strains tested (B. Cereus, B. Subtilis, Listeria innocua). The unexpected result in Table 2 is that, as the chain length of the sophorolipid ester increased from methyl to ethyl, propyl and butyl, the MIC values for B. Cereus, B. Subtilis and L. Innocua decrease. The pentyl ester has similarly low MIC values as the butyl ester derivative for B. Cereus and L. Innocua.

B. Subtilis = assay: as above; type: cell-based; settings: for MIC: Bacillus subtilis, read-out: Minimum Inhibitory Concentration (MIC) B. Subtilis; for activity against B. Subtilis (in words): MIC assay, up to 128 μg/mL
Protocol: as §1

B. Cereus = assay: as above; type: cell-based; settings: for MIC: Bacillus cereus, read-out: Minimum Inhibitory Concentration (MIC) B. Cereus; for activity against B. Cereus (in words): MIC assay, up to 128 μg/mL
Protocol: as §1

human pathogen bacteria = assay: Bactericidal activity (time-kill study); type: cell-based; settings: roughly 10^7 cfu/mL in PBS pH 7.4; for cells killed: at 2×MIC and 4×MIC, within 1 hour; for time to reach 3 log reduction: time-kill, 2×MIC and 4×MIC
Protocol: Bactericidal activity (time-kill study): an in vitro assay was performed to test the bactericidal effect of each sophorolipid derivatives on human pathogen bacteria viability. […] After 15 min, 45 min, 1 h and 3 h incubation, cells were spread on agar plates, incubated at 37° C. for 18 hours and examined for colonies. An untreated cells vial (i.e. no SL added) was used as the control.
To further investigate if the growth inhibition by sophorolipid derivatives is associated with cell death, i.e. if sophorolipid derivatives are bactericidal or bacteriostatic, time-kill studies were performed. […] Moreover, the killing rate was higher for these sophorolipid ester derivatives than natural di-acetylated lactonic sophorolipid that requires almost 2 hours to reach a 3 log reduction.

[1] = prior art statement; cited from earlier work
[2] = Solubility in water / aqueous systems (statement); type: physicochemical; settings: aqueous formulations
[3] = incubation time 30 h, 10^6 cfu/mL, no visible growth
[4] = incubation time 16 h, 10^6 cfu/mL, no visible growth

| Compound | MIC (Listeria innocua; [3]) | MIC (B. Subtilis; [4]) | MIC (B. Cereus; [4]) | cells killed (human pathogen bacteria) | time to reach 3 log reduction (human pathogen bacteria) | activity against B. Subtilis (in words) (B. Subtilis) | other results |
| --- | --- | --- | --- | --- | --- | --- | --- |
| CCCOC(=O)CCCCCCC/C=C\CCCCCCC(C)OC1OC(CO)C(O)C(O)C1OC1OC(CO)C(O)C(O)C1O (centres unmarked) [SL Propyl ester] | 25 µg/mL (≈ 37.6 µM) | 25 µg/mL (≈ 37.6 µM) | 16 µg/mL (≈ 24.1 µM) | more than 99.9% | ≤ 1 hour | – | – |
| CCCCOC(=O)CCCCCCC/C=C\CCCCCCC(C)OC1OC(CO)C(O)C(O)C1OC1OC(CO)C(O)C(O)C1O (centres unmarked) [SL Butyl ester] | 8 µg/mL (≈ 11.8 µM) | 8 µg/mL (≈ 11.8 µM) | 8 µg/mL (≈ 11.8 µM) | more than 99.9% | ≤ 1 hour | – | – |
| SL Hexyl ester | – | – | – | – | – | no activity | activity against Listeria innocua (in words) (Listeria innocua): no activity; Minimum Inhibitory Concentration (MIC) Listeria Innocua (Listeria innocua; [3]): >128 µg/mL; Minimum Inhibitory Concentration (MIC) B. Subtilis (B. Subtilis; [4]): >128 µg/mL; activity against B. Cereus (in words) (B. Cereus): no activity; Minimum Inhibitory Concentration (MIC) B. Cereus (B. Cereus; [4]): >128 µg/mL |
| COC(=O)CCCCCCC/C=C\CCCCCCC(C)OC1OC(CO)C(O)C(O)C1OC1OC(CO)C(O)C(O)C1O (centres unmarked) [SL Methyl ester] | – | – | – | more than 99.9% | ≤ 1 hour | – | MIC (Listeria innocua; 30 h): 64 µg/mL (≈ 101 µM); MIC (B. Subtilis; 16 h): 32 µg/mL (≈ 50.3 µM); MIC (B. Cereus; 16 h): 32 µg/mL (≈ 50.3 µM) |
| CC(=O)OCC1OC2OC(C)CCCCCC/C=C\CCCCCCCC(=O)OC3C(COC(C)=O)OC(OC2C(O)C1O)C(O)C3O (centres unmarked) [Lactonic SL, LSL 6′,6″-diacetate, reference compound] | 32 µg/mL (≈ 46.5 µM) | 8 µg/mL (≈ 11.6 µM) | 16 µg/mL (≈ 23.2 µM) | – | ~2 hour | active | activity against Listeria innocua (in words) (Listeria innocua): active; activity against B. Cereus (in words) (B. Cereus): active; solubility in aqueous systems (in words) [1]: very low solubility; water solubility (in words) [2]: low water solubility |
| CCOC(=O)CCCCCCC/C=C\CCCCCCC(C)OC1OC(CO)C(O)C(O)C1OC1OC(CO)C(O)C(O)C1O (centres unmarked) [SL Ethyl ester] | 32 µg/mL (≈ 49.2 µM) | 32 µg/mL (≈ 49.2 µM) | 32 µg/mL (≈ 49.2 µM) | – | – | – | – |
| SL Pentyl ester | – | – | – | – | – | no activity | Minimum Inhibitory Concentration (MIC) Listeria Innocua (Listeria innocua; [3]): 8 µg/mL; Minimum Inhibitory Concentration (MIC) B. Subtilis (B. Subtilis; [4]): >128 µg/mL; Minimum Inhibitory Concentration (MIC) B. Subtilis (B. Subtilis; incubation time 16 h, 10^6 cfu/mL, no visible growth, listed as pentyl ester): > 128 µg/mL; Minimum Inhibitory Concentration (MIC) B. Cereus (B. Cereus; [4]): 8 µg/mL |
